What was measured:
20 S proteasome = target: T1, 20 S proteasome (Homo sapiens, UniProt P25787+P25789); experiment: T-L peptidase activity of tRpt5-activated 20 S core; assay type: biochemical; conditions: core activated with tRpt5
T1 construct: purified from erythrocytes; purchased Enzo Life Sciences, Inc. (Farmingdale, N.Y.); host or cells: human erythrocytes

[1] = test system: Human multiple myeloma RPMI 8226 cells; experiment: Proliferation of RPMI 8226 cells, live cell count by Trypan Blue exclusion; assay type: cell-based
Experimental: Human multiple myeloma RPMI 8226 cells were purchased from American Type Culture Collection (ATCC; Manassas, Va.) and cultured according to ATCC specifications. […] The content of live cells was determined by excluding the Trypan Blue-stained cells. The cells were counted with TC20 Automated Cell Counter (Bio-Rad Laboratories, Hercules, Calif.) and EC50 was calculated with Origin Pro 2017 (OriginLab Corporation, Northampton, Mass.). When indicated, the cells were harvested, washed twice in PBS, resuspended in dilution buffer and stored in −80° C. To prepare crude lysates the thawed preparations were vortexed with glass beads and centrifuged for 5 min 5,000×g (4° C.). The supernate was centrifuged for 20 min 14,000×g. The resulting supernate was used as “crude lysate.” SDS-PAGE was carried in 12% acrylamide, Tris-glycine gels from Invitrogen. Chameleon Duo (Li-Cor) and Rainbow RPN800E (GE Healthcare) molecular weight standards were separated on each gel alongside lysates. The proteins were transferred to nitrocellulose membrane in a semi-dry system. The membranes were probed with specific primary antibodies from Life Technologies (S6, PS6) and Li-Cor (COX IV), and then with secondary antibodies from Li-Cor. In each experiment visualization of S6, PS6 and COX IV was performed on the same membrane with Odyssey Infrared Imaging System (Li-Cor).
The effects of compound 3 observed in vitro prompted its influence on the proliferation of cultured cancer cells to be tested, namely the multiple myeloma RPMI 8226 line. […] Such relatively low EC50, as compared to in vitro determined IC50 values for peptidase activities (2-3 μM; FIG. 3A and FIG. 3B) should come to no surprise. […] The in vitro readout of single peptidase activities is a useful and convenient measure of the catalytic prowess of proteasome. However, especially in the case of allosteric regulators, it may not fully reflect the important structural and functional effects.
Referring to FIG. […] The data are averages (±SD) of three-to-five independent experiments. […]

[2] = test system: human prostate cancer PC3 cells; experiment: Efficacy study in nude mice xenografted with PC3 cells; assay type: in vivo; conditions: 10 mg/kg intra-tumorally
Experimental: The efficacy study was performed with mice xenografted with human cultured androgen-resistant prostate cancer PC3 cells. To assure efficient monitoring of tumor growth and dissemination, the cells expressing green fluorescent protein (GFP) and luciferine were used for xenografting (Bioware Brite PC3-RedFLuc-GFP). The study involved […] nude mice. Tumor-growing mice were treated intra-tumorally (IT) with the vehicle (dimethylsulfoxide; DMSO; 8 control mice) or with 10 mg/kg of compound 3 (10 mice). Injections were carried on Mondays, Wednesdays, and Fridays. To assure accurate assessment of the tumor size, at the time of first and last treatments the mice were injected with luciferine (substrate for luciferase) and the total intensity of fluorescent product was recorded by the Xenogen IVIS Spectrum small animal imager. […] The color scale from blue (lowest) through green, yellow and red (highest) corresponds to the intensity of fluorescence emitted from the tumor and thus represents the total mass of live cancer cells. Referring to FIG. 8 right panel, median ratios of last-to-first total tumor fluorescence values are shown. Apparently, the median tumor size in controls increased nearly three-fold (ratio=3.05), whereas in the treated cohort a tumor shrinkage was recorded instead (ratio=0.62).

[3] = test system: human cultured androgen-resistant prostate cancer PC3 cells; experiment: Scratch test with PC3 cells; assay type: cell-based; conditions: 1 μM, 24 hrs, 0.5 mm gap
Experimental: The “scratch test” was performed with human cultured androgen-resistant prostate cancer PC3 cells. The surface of growing confluent cells was scratched to produce a 0.5 mm wide gap. The scratch was photographed at time 0 hrs. and the cells were cultured with vehicle (DMSO; 1:1000) or with 1 μM of compound 3. After 24 hrs the scratch in control culture was almost entirely closed.

[4] = target: 20 S proteasome and 19 S regulatory particle (Homo sapiens, UniProt P25787+P25789); experiment: In vitro reconstruction of 26 S: activation of 20 S core by 19 S regulatory particle; assay type: biochemical; conditions: pretreatment 10 minutes RT with 1 μM, 2:1 19 S:20 S, with ATP
Experimental: The 26 S proteasome can be reconstructed in vitro from the purified core (20 S) and regulatory particle (19 S) protein complexes. Activation of the core is considered a measure of effectiveness of the reconstruction. […] The reconstruction was carried out in the presence of ATP (1 mM ATP, 0.5 mM MgCl2, 0.5 mM dithiothreitol), as required for the optimal conditions of the 20 S-19 S binding. Averages and SD from three independent experiments are presented.

immunoproteasomes = immunoproteasomes (Homo sapiens, UniProt P25787+P25789); experiment: Activity of housekeeping and immunoproteasomes activated with Rpt5-derived peptide; assay type: biochemical
Excerpt: Immuno and housekeeping forms are serving distinct physiological functions. The clinically used competitive inhibitors do target them with a similar efficacy; however such outcome is not obvious with allosteric inhibitors such as compound 3. Referring to FIG. 11, the relative activities of the proteasome forms are shown, activated with the Rpt5-derived peptide and treated with compound 3.

Q: Which results are given for `COc1cc(CCCOC(=O)[C@@H]2CCCCN2C(=O)OCc2ccccc2)cc(OC)c1OC` [Compound 3, 1-benzyl 2-(3-(3,4,5-trimethoxyphenyl)propyl) (S)-piperidine-1,2-dicarboxylate]?
A: effect on T-L peptidase (20 S proteasome): not affected; activity at 0.2 µM ([1]; RPMI 8226, 0.2 μM, 24 hours, read-out: cell proliferation, % of control): 60 to 65%; EC50 ([1]; RPMI 8226, 48 hours, read-out: EC50, content of live cells): 550 nM; growth of xenografted tumor [2]: attenuated the growth of xenografted tumor; median ratio of last-to-first total tumor fluorescence ([2]; Mon/Wed/Fri, control ratio 3.05): 0.62; closure of scratch (migration and proliferation) [3]: the scratch was still visible; activation of 20 S core by 19 S [4]: strongly attenuated the activation, by about two-thirds; inhibition of housekeeping versus immunoproteasomes (immunoproteasomes): inhibits both housekeeping and immunoproteasomes with similar efficacy
